Source: ChEMBL document CHEMBL1201862, “PubChem BioAssay data set” (2004)
Activity calls are given as the source filed them.

Key:
[1] = cytotoxicity in KRAS-transformed pancreatic duct cells, primary screen, cell-based, fluorescence, HTS (AID 431); type: functional; details: Homo sapiens;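 further: cell line used: HPDE-C7K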
[2] = C. albicans growth with fluconazole, confirmation, fluorescence, retest (AID 2467); type: functional, cell-based
[3] = molecular target: Induced myeloid leukemia cell differentiation protein Mcl-1 (Homo sapiens, UniProt Q07820); type: functional
[4] = cytotoxicity in HPDE-C7 cells, cell-based, fluorescence, HTS (AID 430); type: functional; details: Homo sapiens
[5] = NIH-3T3 fibroblast cytotoxicity, dose response, cytotoxicity control, cell-based, fluorescence, Alamar Blue, secondary assay (AID 2327); type: functional;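 further: NIH-3T3 mouse fibroblasts cultured with fluconazole at 8 µg/mL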
[6] = molecular target: ATP-dependent molecular chaperone HSP82 (Candida albicans (strain WO-1) (Yeast), UniProt C4YTQ8); assay: loss of DOC-induced GRE-beta-galactosidase reporter signal, dose response, Hsp90 inhibitor project, S. cerevisiae, luminescence (AID 2400); type: functional, cell-based;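 further: beta-galactosidase luminescence from glucocorticoid response element reporter as proxy for Hsp90 function; inhibitor potency where signal loss means Hsp90 inhibition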
HeLa = assay: Cytotoxicity counterscreen assay for transcriptional activators of heat shock protein 70 (Hsp70). [Related pubchem assays: 1203, 1252 ]; type: functional; details: Homo sapiens;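 further: cells exposed to compound for 16 hours before readout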
[7] = molecular target: T1, Heat shock factor protein 1 (Mus musculus, UniProt P38532); assay: HSF1 potentiators in luciferase reporter cells, confirmation, cell-based, NIH3T3, luminescence, dose retest (AID 435004); type: functional;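 further: stress induced by proteasome inhibitor MG132 added 30 min after compound; luciferase reporter driven by HSF1 response element in NIH3T3 cells; actives raise luminescence as potentiators of the MG132 stress response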
T1 sequence (P38532 whole entry): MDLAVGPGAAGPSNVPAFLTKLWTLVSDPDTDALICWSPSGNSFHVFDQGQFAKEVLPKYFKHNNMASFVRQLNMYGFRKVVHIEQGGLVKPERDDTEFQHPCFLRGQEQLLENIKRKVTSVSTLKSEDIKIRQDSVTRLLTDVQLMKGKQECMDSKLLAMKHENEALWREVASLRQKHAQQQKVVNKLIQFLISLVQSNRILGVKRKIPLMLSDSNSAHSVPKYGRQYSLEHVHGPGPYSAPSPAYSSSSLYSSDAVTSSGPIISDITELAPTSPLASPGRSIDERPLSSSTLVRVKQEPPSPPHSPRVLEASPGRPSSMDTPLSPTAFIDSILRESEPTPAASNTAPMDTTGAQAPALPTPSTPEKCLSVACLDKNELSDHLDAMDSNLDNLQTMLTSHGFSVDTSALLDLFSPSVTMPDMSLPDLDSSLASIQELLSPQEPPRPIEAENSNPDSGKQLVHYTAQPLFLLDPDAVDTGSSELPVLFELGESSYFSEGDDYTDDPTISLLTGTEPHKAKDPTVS

[8] = molecular target: Serine/threonine-protein phosphatase (Candida dubliniensis (strain CD36 / CBS 7987 / NCPF 3949 / NRRLY-17841) (Yeast), UniProt B9W6M3); assay: calcineurin pathway inhibitors in yeast reporter, dose response, S. cerevisiae, CDRE-lacZ, luminescence, secondary (AID 2388); type: functional, cell-based;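 further: yeast reporter cells carrying a calcineurin-responsive lacZ construct stimulated with calcium chloride; luminescent beta-galactosidase reporter signal in whole cells rather than isolated phosphatase activity; potency for inhibition where a drop in reporter signal means calcineurin blockade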
[9] = control 3'UTR Renilla luciferase suppression, dose response, counter-screen for Shn3 inhibitor project, cell-based, Clone20-Shn3RL, cherry-picked (AID 624133); type: functional
[10] = molecular target: Beta-2 adrenergic receptor (Homo sapiens, UniProt P07550); assay: beta2AR agonists driving receptor internalization, dose response, cell-based, FAP fluorogen, flow cytometry, cherry pick 1 (AID 588763); type: functional
[11] = molecular target: T2, Sphingosine 1-phosphate receptor 4 (Homo sapiens, UniProt O95977); assay: Fluorescence dose response cell-based high throughput screening assay for antagonists of the Sphingosine 1-Phosphate Receptor 4 (S1P4). [Related pubchem assays: 1524 (Confirmation in triplicates.), 1510 (Primary screen.)]; type: functional
T2 sequence (O95977 whole entry): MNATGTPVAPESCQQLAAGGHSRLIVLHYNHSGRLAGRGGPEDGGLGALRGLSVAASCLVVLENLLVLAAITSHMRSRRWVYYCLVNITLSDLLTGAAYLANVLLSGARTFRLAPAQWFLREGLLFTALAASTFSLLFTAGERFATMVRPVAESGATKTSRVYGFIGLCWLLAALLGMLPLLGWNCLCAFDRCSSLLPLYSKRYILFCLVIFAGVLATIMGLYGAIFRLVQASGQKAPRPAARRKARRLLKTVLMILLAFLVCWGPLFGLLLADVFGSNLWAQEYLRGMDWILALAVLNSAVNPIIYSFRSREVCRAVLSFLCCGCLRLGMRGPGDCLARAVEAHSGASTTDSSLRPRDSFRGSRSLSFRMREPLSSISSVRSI

[12] = molecular target: Sphingosine 1-phosphate receptor 1 (Homo sapiens, UniProt P21453); type: functional;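 further: Tango beta-arrestin reporter U2OS cells stimulated with S1P near its EC80; inhibitor potency meaning antagonism of receptor activation by the natural agonist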
[13] = molecular target: T3, Replicative DNA helicase DnaB (Mycobacterium tuberculosis, UniProt P9WMR3); assay: DnaB intein splicing inhibitors, dose response, biochemical, cell-free fluorescence (AID 449749); type: functional
T3 sequence (P9WMR3 whole entry): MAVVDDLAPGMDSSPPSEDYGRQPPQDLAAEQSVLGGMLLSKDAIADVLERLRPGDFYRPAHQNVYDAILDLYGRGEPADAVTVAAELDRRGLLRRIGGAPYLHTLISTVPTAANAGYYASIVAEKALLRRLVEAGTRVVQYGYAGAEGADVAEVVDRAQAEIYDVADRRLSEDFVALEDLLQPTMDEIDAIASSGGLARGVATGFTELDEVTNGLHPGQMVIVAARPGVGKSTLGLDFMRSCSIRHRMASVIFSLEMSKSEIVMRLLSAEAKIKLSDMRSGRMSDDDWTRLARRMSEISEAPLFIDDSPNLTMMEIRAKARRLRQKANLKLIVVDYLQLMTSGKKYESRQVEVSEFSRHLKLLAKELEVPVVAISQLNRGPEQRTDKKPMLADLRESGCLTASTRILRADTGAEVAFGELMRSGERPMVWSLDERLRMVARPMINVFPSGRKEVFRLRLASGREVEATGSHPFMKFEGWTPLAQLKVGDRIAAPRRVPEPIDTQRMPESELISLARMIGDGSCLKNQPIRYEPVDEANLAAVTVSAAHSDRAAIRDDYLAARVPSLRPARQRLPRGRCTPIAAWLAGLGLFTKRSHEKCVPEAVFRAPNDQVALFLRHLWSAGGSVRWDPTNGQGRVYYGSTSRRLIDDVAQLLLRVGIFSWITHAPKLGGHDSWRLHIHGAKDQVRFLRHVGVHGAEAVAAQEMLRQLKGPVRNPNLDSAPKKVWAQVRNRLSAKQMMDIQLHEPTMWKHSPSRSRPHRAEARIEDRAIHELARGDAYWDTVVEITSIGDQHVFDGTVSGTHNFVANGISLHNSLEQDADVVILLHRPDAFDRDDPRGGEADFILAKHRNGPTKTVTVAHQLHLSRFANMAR

Protein RecA = molecular target: T4, Protein RecA (Mycobacterium tuberculosis, UniProt P9WHJ3); assay: Fluorescence Cell-Free Homogeneous Dose Retest to Identify Inhibitors of RecA-Intein Splicing Activity. [Related pubchem assays (depositor defined):AID2097, AID2223, AID489010, AID492950]; type: functional
T4 sequence (P9WHJ3 whole entry): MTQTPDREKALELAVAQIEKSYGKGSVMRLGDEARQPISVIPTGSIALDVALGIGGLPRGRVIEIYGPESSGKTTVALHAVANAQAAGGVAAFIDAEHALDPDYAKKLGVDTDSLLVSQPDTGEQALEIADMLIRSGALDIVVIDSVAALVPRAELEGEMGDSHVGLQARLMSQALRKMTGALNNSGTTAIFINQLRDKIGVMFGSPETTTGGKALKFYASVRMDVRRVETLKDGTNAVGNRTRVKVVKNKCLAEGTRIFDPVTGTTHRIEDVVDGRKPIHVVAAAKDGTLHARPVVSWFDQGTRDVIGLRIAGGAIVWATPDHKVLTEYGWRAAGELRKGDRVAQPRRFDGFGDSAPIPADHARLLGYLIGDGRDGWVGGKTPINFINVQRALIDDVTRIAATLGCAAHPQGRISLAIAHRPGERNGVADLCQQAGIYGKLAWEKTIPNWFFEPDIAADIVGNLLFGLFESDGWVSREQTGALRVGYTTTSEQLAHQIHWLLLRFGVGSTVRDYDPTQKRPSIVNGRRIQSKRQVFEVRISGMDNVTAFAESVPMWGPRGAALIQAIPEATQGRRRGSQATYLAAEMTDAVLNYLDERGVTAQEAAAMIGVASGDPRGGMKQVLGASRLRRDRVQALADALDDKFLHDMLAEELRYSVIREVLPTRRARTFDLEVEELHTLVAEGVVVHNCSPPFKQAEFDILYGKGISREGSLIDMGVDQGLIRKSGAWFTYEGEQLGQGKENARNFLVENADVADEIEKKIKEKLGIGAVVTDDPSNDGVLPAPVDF

[14] = Shn3 3'UTR reporter inhibitors, dose response, cell-based, Clone20 osteoblasts, firefly luciferase, cherry-picked (AID 624132); type: functional;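 further: firefly luciferase luminescence from reporter carrying the Shn3 3'UTR in osteoblasts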
[15] = inhibitors of firefly luciferase expression or activity, dose response, H4 neuroglioma cells, luminescence (AID 1990); type: functional, cell-based
[16] = inhibitors of SNCA 5'UTR-driven reporter translation, confirmation, H4 neuroglioma cells, luminescence (AID 1988); type: functional, cell-based
[17] = molecular target: T5, Microphthalmia-associated transcription factor (Homo sapiens, UniProt O75030); assay: TRPM1 promoter luciferase signal decrease, dose response, MITF inhibitor project, cell-based, SK-MEL-5, cherry-picked, set 3 (AID 493073); type: functional
T5 sequence (O75030 whole entry): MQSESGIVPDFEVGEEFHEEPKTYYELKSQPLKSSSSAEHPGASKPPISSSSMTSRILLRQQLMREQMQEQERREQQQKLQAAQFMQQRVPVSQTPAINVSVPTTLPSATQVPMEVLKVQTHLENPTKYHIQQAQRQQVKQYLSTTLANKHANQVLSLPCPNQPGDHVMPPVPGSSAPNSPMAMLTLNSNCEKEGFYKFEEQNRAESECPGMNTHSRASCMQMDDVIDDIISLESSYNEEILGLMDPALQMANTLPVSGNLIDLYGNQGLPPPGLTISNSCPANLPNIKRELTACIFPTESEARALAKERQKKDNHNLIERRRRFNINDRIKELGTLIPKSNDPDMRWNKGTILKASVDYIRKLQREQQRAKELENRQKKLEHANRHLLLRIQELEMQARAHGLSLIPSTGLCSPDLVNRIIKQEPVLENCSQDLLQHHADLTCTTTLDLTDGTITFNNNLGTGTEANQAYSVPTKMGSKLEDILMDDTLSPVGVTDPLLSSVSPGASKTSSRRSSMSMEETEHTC

[18] = molecular target: 26S proteasome non-ATPase regulatory subunit 14 (Homo sapiens, UniProt O00487); assay: inhibition of proteasome subunit RPN11 – biochemical, fluorescence polarization, uHTS hits, confirmation (AID 602368); type: functional
Prothrombin = Prothrombin (Bos taurus, UniProt P00735); assay: thrombin inhibition, dose response, biochemical, fluorescence polarization, uHTS hits (AID 602369); type: functional
[19] = molecular target: 72 kDa type IV collagenase (Homo sapiens, UniProt P08253); assay: Dose Response validation of uHTS RPN11 inhibitor hits using a MMP-2 Fluorescence assay.; type: functional
[20] = Luminescence Cell-Based Dose Response HTS to Identify Inhibitors of 5'UTR Stem-Loop Driven Prion Protein mRNA Translation in H4 Neuroglioblastoma Cells. [Related pubchem assays: 1827 (Project Summary), 1813 (Primary HTS)]; type: functional
[21] = enhancers of respiration in Yfh1-depleted yeast, dose response, Friedreich's ataxia, plus single-dose screen (AID 1465); type: functional;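 further: yeast depleted of Yfh1p frataxin homolog grown on glycerol needing respiration; WST-1 tetrazolium dye reduction as measure of cellular dehydrogenase metabolic activity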
Estrogen receptor = molecular target: T6, Estrogen receptor (Homo sapiens, UniProt P03372); assay: potentiators of ERα–SRC-1 coactivator binding, dose response, biochemical, TR-FRET, ERα LBD (AID 737)
T6 sequence (P03372 whole entry): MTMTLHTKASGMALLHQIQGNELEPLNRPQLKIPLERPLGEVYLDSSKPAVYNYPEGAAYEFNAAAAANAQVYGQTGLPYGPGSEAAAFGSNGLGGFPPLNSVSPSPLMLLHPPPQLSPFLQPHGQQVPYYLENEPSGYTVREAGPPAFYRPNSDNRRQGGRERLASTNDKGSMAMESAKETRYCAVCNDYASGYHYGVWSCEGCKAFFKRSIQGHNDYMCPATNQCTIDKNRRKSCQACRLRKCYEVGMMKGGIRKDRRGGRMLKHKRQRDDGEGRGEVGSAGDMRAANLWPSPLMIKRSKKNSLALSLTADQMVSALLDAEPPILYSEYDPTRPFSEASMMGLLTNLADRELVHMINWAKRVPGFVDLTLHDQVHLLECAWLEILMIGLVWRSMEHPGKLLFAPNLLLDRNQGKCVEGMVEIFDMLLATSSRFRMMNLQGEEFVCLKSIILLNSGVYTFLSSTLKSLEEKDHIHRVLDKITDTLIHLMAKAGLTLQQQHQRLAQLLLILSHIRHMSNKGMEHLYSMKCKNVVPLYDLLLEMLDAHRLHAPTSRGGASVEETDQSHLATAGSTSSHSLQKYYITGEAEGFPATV

[22] = molecular target: ADP-ribosylation factor GTPase-activating protein 1 (Rattus norvegicus, UniProt Q62848); assay: Fluorescence polarization-based biochemical high throughput dose response screening assay to identify inhibitors of ADP-ribosylation factor GTPase activating protein 1 (ARFGAP1).; type: functional
ADP-ribosylation factor GTPase-activating protein 1, sequence (Q62848 whole entry): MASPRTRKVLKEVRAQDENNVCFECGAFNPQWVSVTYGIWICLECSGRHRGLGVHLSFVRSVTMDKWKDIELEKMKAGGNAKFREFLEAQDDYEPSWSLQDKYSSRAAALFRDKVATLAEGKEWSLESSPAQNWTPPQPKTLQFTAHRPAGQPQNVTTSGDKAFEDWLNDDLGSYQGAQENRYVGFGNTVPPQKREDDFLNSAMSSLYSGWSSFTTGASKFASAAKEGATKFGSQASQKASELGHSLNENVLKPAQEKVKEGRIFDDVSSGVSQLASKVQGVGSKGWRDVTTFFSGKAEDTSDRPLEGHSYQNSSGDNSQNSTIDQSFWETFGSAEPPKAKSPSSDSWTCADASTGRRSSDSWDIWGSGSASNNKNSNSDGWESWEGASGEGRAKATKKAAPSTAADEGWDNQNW

Beta-2 adrenergic receptor, sequence (P07550 whole entry): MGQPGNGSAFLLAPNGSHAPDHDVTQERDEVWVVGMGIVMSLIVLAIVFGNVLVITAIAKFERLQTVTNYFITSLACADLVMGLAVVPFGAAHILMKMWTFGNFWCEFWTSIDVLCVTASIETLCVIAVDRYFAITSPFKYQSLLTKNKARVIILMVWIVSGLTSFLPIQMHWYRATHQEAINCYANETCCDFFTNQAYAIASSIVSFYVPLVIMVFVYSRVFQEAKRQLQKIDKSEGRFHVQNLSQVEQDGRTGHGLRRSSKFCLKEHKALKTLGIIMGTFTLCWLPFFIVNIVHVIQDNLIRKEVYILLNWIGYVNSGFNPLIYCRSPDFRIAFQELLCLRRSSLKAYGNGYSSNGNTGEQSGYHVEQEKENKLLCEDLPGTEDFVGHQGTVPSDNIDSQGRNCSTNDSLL
Sphingosine 1-phosphate receptor 1, sequence (P21453 whole entry): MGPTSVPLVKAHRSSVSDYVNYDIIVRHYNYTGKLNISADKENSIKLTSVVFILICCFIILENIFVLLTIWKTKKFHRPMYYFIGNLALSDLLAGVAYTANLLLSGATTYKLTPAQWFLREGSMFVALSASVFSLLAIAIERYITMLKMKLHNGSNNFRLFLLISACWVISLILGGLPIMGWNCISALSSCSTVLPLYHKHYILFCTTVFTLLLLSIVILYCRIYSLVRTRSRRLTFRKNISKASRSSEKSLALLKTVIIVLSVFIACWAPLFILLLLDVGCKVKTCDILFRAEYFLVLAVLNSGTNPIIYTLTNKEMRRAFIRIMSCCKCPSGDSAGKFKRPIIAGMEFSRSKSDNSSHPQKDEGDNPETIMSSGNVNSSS
Induced myeloid leukemia cell differentiation protein Mcl-1, sequence (Q07820 whole entry): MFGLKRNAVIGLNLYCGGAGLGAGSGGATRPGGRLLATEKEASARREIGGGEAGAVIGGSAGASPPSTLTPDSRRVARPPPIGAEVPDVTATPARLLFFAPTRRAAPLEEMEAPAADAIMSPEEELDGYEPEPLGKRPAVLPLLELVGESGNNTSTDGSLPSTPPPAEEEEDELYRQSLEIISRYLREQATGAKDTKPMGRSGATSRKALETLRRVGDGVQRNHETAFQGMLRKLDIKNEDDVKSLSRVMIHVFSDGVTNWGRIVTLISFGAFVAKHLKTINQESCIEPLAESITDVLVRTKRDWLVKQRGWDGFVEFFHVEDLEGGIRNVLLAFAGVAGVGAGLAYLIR
72 kDa type IV collagenase, sequence (P08253 whole entry): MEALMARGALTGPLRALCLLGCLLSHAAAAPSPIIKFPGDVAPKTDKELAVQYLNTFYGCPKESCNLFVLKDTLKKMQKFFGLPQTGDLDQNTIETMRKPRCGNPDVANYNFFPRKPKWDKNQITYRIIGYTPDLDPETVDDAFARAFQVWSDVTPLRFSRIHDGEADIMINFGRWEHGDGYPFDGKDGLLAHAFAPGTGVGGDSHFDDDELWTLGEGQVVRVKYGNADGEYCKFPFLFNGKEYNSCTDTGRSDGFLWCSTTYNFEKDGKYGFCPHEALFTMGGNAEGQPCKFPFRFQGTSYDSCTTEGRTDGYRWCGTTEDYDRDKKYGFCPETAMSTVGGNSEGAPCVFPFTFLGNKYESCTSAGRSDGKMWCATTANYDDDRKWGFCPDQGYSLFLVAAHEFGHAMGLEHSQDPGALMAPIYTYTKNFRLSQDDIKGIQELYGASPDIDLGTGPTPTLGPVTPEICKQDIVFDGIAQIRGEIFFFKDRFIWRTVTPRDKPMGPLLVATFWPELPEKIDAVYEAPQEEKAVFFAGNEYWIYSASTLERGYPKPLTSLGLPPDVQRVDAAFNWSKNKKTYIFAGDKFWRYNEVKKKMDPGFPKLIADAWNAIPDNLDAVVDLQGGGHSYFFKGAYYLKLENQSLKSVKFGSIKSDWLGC
Serine/threonine-protein phosphatase, sequence (B9W6M3 whole entry): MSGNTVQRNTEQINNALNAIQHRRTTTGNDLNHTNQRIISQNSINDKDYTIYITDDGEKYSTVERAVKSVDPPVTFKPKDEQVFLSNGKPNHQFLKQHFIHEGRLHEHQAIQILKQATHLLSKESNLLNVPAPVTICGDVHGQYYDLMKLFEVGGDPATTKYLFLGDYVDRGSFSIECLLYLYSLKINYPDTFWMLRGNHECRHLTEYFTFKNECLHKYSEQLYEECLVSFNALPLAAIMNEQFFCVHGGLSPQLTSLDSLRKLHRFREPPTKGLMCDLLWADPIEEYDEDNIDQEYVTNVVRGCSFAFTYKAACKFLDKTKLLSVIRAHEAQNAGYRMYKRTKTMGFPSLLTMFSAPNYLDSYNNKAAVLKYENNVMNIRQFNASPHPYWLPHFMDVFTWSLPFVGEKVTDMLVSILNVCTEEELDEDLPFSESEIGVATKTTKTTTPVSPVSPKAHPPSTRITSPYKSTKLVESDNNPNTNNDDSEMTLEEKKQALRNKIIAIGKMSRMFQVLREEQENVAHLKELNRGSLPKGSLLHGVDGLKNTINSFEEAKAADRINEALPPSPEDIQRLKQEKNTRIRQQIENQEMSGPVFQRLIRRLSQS
ATP-dependent molecular chaperone HSP82, sequence (C4YTQ8 whole entry): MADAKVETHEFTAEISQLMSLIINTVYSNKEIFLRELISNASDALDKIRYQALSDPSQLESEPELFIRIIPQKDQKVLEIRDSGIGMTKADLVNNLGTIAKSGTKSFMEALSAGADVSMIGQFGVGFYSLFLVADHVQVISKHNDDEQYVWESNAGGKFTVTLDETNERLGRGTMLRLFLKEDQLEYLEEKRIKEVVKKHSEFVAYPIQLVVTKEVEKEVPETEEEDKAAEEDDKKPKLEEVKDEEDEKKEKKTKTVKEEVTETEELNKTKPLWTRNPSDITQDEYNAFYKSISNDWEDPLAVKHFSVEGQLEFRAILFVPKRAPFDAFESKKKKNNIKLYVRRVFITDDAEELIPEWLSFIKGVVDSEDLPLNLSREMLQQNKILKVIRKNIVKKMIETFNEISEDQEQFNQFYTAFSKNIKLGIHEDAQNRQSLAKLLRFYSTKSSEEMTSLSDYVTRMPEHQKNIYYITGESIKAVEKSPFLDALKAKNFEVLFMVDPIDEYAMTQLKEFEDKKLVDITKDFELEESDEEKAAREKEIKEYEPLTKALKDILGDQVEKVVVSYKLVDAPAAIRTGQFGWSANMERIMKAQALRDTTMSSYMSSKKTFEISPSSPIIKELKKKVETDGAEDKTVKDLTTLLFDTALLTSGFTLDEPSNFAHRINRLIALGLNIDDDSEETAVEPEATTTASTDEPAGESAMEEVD
26S proteasome non-ATPase regulatory subunit 14, sequence (O00487 whole entry): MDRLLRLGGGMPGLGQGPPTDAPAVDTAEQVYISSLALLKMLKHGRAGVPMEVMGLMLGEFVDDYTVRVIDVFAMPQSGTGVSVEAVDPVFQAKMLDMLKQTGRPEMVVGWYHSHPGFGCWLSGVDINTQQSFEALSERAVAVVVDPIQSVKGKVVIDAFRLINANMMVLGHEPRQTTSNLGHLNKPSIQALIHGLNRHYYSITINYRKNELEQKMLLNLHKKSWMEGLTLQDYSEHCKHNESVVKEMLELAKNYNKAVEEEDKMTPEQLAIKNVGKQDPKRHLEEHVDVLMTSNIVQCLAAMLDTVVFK

COc1ccc(C(c2c(O)ccc3ccccc23)N2CCOCC2)c(OC)c1 (stereo unspecified)
EC50 [1]: 3.89 µM (active)
EC50 [2]: 1.82 µM (active)
IC50 [3]: 1.62 µM (active)
EC50 [4]: 4.07 µM (active)
EC50 [5]: 11.6 µM (active)
EC50 [6]: > 160 µM (inactive)
CC50 (HeLa): 44.3 µM (not active)
EC50 [7]: 12.5 µM (active)
EC50 [8]: > 180 µM (inactive)

CC(C)c1nnc(NC(=O)CCS(=O)(=O)c2nc(-c3cccs3)cc(C(F)(F)F)n2)s1
AC50 [9]: 6.01 µM (active)
EC50 [10]: 33.7 µM (inactive)
IC50 [11]: 1.1 µM (active)
IC50 [12]: 13.5 µM (not active)
AC50 [13]: > 120 µM (inactive)
EC50 (Protein RecA): 30.4 µM (inconclusive)
AC50 [14]: 3.02 µM (active)

CCN(CCO)c1ccc(N=Nc2cc(C)[nH]n2)cc1
EC50 [15]: 5.43 µM (active)
EC50 [16]: 4.94 µM (active)
AC50 [17]: 3.6 µM (active)
IC50 [18]: 53 µM (active)
IC50 (Prothrombin): 61.2 µM (active)
IC50 [19]: > 100 µM (inactive)
EC50 [20]: 4.08 µM (active)
EC50 [21]: > 100 µM (active)

COc1ccc(CCn2c(SCC(=O)Nc3cc(C)on3)nc3ccsc3c2=O)cc1OC
EC50 (Estrogen receptor): 12.8 µM (active)
IC50 [22]: 44 µM (inactive)
